This passage reports IC50 results from patent publication US20260226068A1, “IMIDAZOTRIAZINE IL-17A MODULATORS AND USES THEREOF” (DICE ALPHA, INC., priority 2023, published 2026).

One experiment concerns the target T1, IL-17A/A (Homo sapiens, UniProt Q16552).
T1 construct: purchased Genscript Z03228
T1 sequence (Q16552 24-155): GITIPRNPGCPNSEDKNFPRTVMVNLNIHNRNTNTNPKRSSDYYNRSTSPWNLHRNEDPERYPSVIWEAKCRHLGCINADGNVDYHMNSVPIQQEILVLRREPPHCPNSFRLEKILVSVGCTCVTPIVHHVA
In words: IL-17A/A HEK-Blue cell assay (SEAP reporter). To be noted: HEK-Blue IL-17A reporter cells, IL17A/A 5 ng/mL, 20 hours, SEAP read at A630; read-out: HEK-Blue IL17AA (IC50 for IL-17A/A inhibition). The class given is cell-based. The procedure: (§1) The HEK-Blue IL-17A reporter cell line (Fisher #NC 1408637) was used for cell-based IL-17A/A inhibition assays. Cells were grown and prepared for assays according to the manufacturer's instructions. This cell line consists of HEK 293 cells that were designed to expressed IL-17RA, IL-17RC, and the Act1 adapter molecule, the combination of which, when stimulated by IL-17A/A or IL17A/F activates a […] promoter and drives expression of the recombinant Secreted Alkaline Phosphatase (SEAP) gene. Media from the cells is then added to a development reagent (Quanti-Blue Substrate, Fisher #NC971 1613), and read at A630.
(§2) Compounds were dispensed in DMSO to an empty clear 384-well tissue culture plate in a titration ranging from 10 μM to 27 pM, with DMSO added to every well to a final concentration of […]. Cells were then added to the plate (45 μL/well at a concentration of 280,000 cells/mL). IL17A/A (Genscript #Z03228) or IL17A/F (R&D Systems) was added to the plate to a final concentration of 5 ng/mL and a final well volume of 50 μL. The cells, compound, and IL-17A/A or IL17A/F were then incubated for 20 hours before media was removed for SEAP analysis. The resulting inhibition curve was then analyzed using Dotmatics' integrated 4-parameter fit screening protocol to generate IC50 values.
(§3) Table 2 includes IC50 values for IL-17A/A and IL-17A/F inhibition of selected compounds; with compounds having a IC50 of A<100 nM; B 100-1000 nM; and C>1000 nM.

In the next experiment the target is T2, IL-17A/F (Homo sapiens, UniProt Q16552+Q96PD4).
T2 construct: purchased R&D Systems
T2 sequence (Q16552 24-155): T1 sequence (Q16552 24-155)
T2 sequence (Q96PD4 31-163): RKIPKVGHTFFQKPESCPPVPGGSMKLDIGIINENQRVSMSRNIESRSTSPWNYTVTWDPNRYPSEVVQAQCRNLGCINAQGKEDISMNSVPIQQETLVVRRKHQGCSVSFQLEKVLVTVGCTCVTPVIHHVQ
Kind of experiment: IL-17A/F HEK-Blue cell assay (SEAP reporter). The class given is cell-based. The conditions noted are these: HEK-Blue IL-17A reporter cells, IL17A/F 5 ng/mL, 20 hours, SEAP read at A630; read-out: HEK-Blue IL17AF (IC50 for IL-17A/F inhibition). On the procedure:
as §1, §2, §3

Structures are written as SMILES.

Consider `CCn1nccc1C(=O)N[C@H](c1cn2nc(C[C@@H]3C[C@@H](C(F)(F)F)CNC3=O)cnc2n1)[C@H]1CC[C@H](C)CC1` [Compound 25], for which the IC50 at IL-17A/A was 100 to 1000 nM; on IL-17A/F it was more than 1000 nM.

As for `CCn1nccc1C(=O)N[C@H](c1cn2nc(CC3C[C@@H](C(F)(F)F)CNC3=O)c(N3CCO[C@@H](C)C3)nc2n1)[C@@H]1CCCC(F)(F)C1` (single isomer, unassigned) [Compound 208], the values for the IC50 on IL-17A/A and at IL-17A/F were less than 100 nM and 100 to 1000 nM, respectively.

Turning to `CCn1nccc1C(=O)N[C@H](c1cn2nc(CC3C[C@@H](C(F)(F)F)CNC3=O)c(N3CCOCC3)nc2n1)C1CCC(F)(F)CC1` (mixture of isomers) [Compound 19, N-((1S)-(4,4-difluorocyclohexyl)(3-morpholino-2-(((5R)-2-oxo-5-(trifluoromethyl)piperidin-3-yl)methyl)imidazo[1,2-b][1,2,4]triazin-6-yl)methyl)-1-ethyl-1H-pyrazole-5-carboxamide], the IC50 on IL-17A/A is 100 to 1000 nM; on IL-17A/F it was more than 1000 nM.

As for `C[C@H]1CN(c2nc3nc([C@@H](NC(=O)c4ccnn4C)[C@@H]4CCCC(F)(F)C4)cn3nc2C[C@H]2C[C@@H](C(F)(F)F)CNC2=O)CCO1` [Compound 308, N—((S)—((R)-3,3-difluorocyclohexyl)(3-((S)-2-methylmorpholino)-2-(((3R,5R)-2-oxo-5-(trifluoromethyl)piperidin-3-yl)methyl)imidazo[1,2-b][1,2,4]triazin-6-yl)methyl)-1-methyl-1H-pyrazole-5-carboxamide], the IC50 on IL-17A/A was less than 100 nM; on IL-17A/F it was 100 to 1000 nM.

Consider `Cn1nccc1C(=O)N[C@H](c1cn2nc(C[C@H]3C[C@@H](C(F)(F)F)CNC3=O)c(C3CCC(F)(F)CC3)nc2n1)C1CCC(F)(F)CC1` [Compound 262, N—((S)-(4,4-difluorocyclohexyl)(3-(4,4-difluorocyclohexyl)-2-(((3R,5R)-2-oxo-5-(trifluoromethyl)piperidin-3-yl)methyl)imidazo[1,2-b][1,2,4]triazin-6-yl)methyl)-1-methyl-1H-pyrazole-5-carboxamide], for which the IC50 was less than 100 nM at IL-17A/A and 100 to 1000 nM on IL-17A/F.

Take `CCn1nccc1C(=O)N[C@H](c1cn2nc(C[C@H]3C[C@@H](C(F)(F)F)CNC3=O)c([C@@H]3CCCN(C)C3)nc2n1)C1CCC(F)(F)CC1` (single isomer, unassigned) [Compound 401]: the IC50 on IL-17A/A is 100 to 1000 nM; at IL-17A/F, more than 1000 nM.

On to `CC(C)n1nccc1C(=O)N[C@H](c1cn2nc(CC3C[C@@H](C(F)(F)F)CNC3=O)c(N3CCOCC3)nc2n1)[C@H]1CC[C@H](C)CC1` (single isomer, unassigned) [Compound 101], for which the IC50 was less than 100 nM at IL-17A/A and 100 to 1000 nM on IL-17A/F.

On to `CCn1nccc1C(=O)N[C@H](c1cn2nc(C[C@H]3C[C@@H](C(F)(F)F)CNC3=O)c(N3CCO[C@@H](C)C3)nc2n1)[C@H]1CCCC(F)(F)C1` [Compound 123, N—((S)—((S)-3,3-difluorocyclohexyl)(3-((S)-2-methylmorpholino)-2-(((3R,5R)-2-oxo-5-(trifluoromethyl)piperidin-3-yl)methyl)imidazo[1,2-b][1,2,4]triazin-6-yl)methyl)-1-ethyl-1H-pyrazole-5-carboxamide], for which the IC50 was less than 100 nM at IL-17A/A and 100 to 1000 nM at IL-17A/F.

Regarding `CCn1nccc1C(=O)N[C@H](c1cn2nc(C[C@H]3C[C@@H](C(F)(F)F)CNC3=O)c(CN3CCOCC3C)nc2n1)[C@H]1CC[C@H](C)CC1` (stereo partly drawn) [Compound 408, 1-ethyl-N-((1S)-((1r,4S)-4-methylcyclohexyl)(3-((3-methylmorpholino)methyl)-2-(((3R,5R)-2-oxo-5-(trifluoromethyl)piperidin-3-yl)methyl)imidazo[1,2-b][1,2,4]triazin-6-yl)methyl)-1H-pyrazole-5-carboxamide], the IC50 at IL-17A/A and on IL-17A/F was less than 100 nM each time.

`CCn1ncnc1C(=O)N[C@H](c1cn2nc(C[C@H]3C[C@@H](C(F)(F)F)CNC3=O)c(C3CCOCC3)nc2n1)[C@H]1CCCC(F)(F)C1` [Compound 422, N—((S)—((S)-3,3-difluorocyclohexyl)(2-(((3R,5R)-2-oxo-5-(trifluoromethyl)piperidin-3-yl)methyl)-3-(tetrahydro-2H-pyran-4-yl)imidazo[1,2-b][1,2,4]triazin-6-yl)methyl)-1-ethyl-1H-1,2,4-triazole-5-carboxamide]: the results for the IC50 on IL-17A/A and at IL-17A/F were less than 100 nM and 100 to 1000 nM, respectively.

For the molecule `O=C(N[C@H](c1cn2nc(C[C@@H]3C[C@@H](C(F)(F)F)CNC3=O)cnc2n1)C1CCC(F)(F)CC1)c1nonc1C1CC1` (single isomer, unassigned) [Compound 33], the IC50 was 100 to 1000 nM at IL-17A/A and more than 1000 nM at IL-17A/F.

As for `CCn1nccc1C(=O)N[C@H](c1cn2nc(CC3C[C@@H](C(F)(F)F)CNC3=O)c(N3CCOCC3)nc2n1)[C@H]1CC[C@H](C)CC1` (single isomer, unassigned) [Compound 22], the IC50 on IL-17A/A was less than 100 nM; on IL-17A/F it was 100 to 1000 nM.

As for `Cc1nonc1C(=O)N[C@H](c1cn2nc(C[C@@H]3C[C@H](C)CNC3=O)c(C3CCOCC3)nc2n1)C1CCC(F)(F)CC1` [Compound 399], the IC50 is less than 100 nM on IL-17A/A and more than 1000 nM at IL-17A/F.

For `CCn1nccc1C(=O)N[C@H](c1cn2nc(C[C@H]3C[C@@H](C(F)(F)F)CNC3=O)c(CN3CCCCC3)nc2n1)C1CCC(F)(F)CC1` [Compound 288, N—((S)-(4,4-difluorocyclohexyl)(2-(((3R,5R)-2-oxo-5-(trifluoromethyl)piperidin-3-yl)methyl)-3-(piperidin-1-ylmethyl)imidazo[1,2-b][1,2,4]triazin-6-yl)methyl)-1-ethyl-1H-pyrazole-5-carboxamide], the IC50 is less than 100 nM at IL-17A/A and more than 1000 nM at IL-17A/F.

With `Cc1nonc1C(=O)N[C@H](c1cn2nc(C[C@H]3C[C@@H](C(F)(F)F)CNC3=O)c([C@@H]3CCCOC3)nc2n1)C1CCC(F)(F)CC1` (single isomer, unassigned) [Compound 266], the IC50 was less than 100 nM at IL-17A/A and more than 1000 nM at IL-17A/F.

Regarding `CCn1nccc1C(=O)N[C@H](c1cn2nc(C[C@H]3C[C@@H](C(F)(F)F)CNC3=O)c(C3CCNCC3)nc2n1)C1CCC(F)(F)CC1` [Compound 299, N—((S)-(4,4-difluorocyclohexyl)(2-(((3R,5R)-2-oxo-5-(trifluoromethyl)piperidin-3-yl)methyl)-3-(piperidin-4-yl)imidazo[1,2-b][1,2,4]triazin-6-yl)methyl)-1-ethyl-1H-pyrazole-5-carboxamide], the IC50 at IL-17A/A was 100 to 1000 nM; at IL-17A/F, more than 1000 nM.

On to `CCn1nccc1C(=O)N[C@H](c1cn2nc(C[C@H]3C[C@@H](C(F)(F)F)CNC3=O)c(N3CCOC(COC)C3)nc2n1)C1CCC(F)(F)CC1` (stereo partly drawn) [Compound 416, N-((1S)-(4,4-difluorocyclohexyl)(3-(2-(methoxymethyl)morpholino)-2-(((3R,5R)-2-oxo-5-(trifluoromethyl)piperidin-3-yl)methyl)imidazo[1,2-b][1,2,4]triazin-6-yl)methyl)-1-ethyl-1H-pyrazole-5-carboxamide], for which the IC50 was less than 100 nM at IL-17A/A and 100 to 1000 nM at IL-17A/F.

For the molecule `Cn1nccc1C(=O)N[C@H](c1cn2nc(C[C@H]3C[C@@H](C(F)(F)F)CNC3=O)c(C3CCOCC3)nc2n1)C(C1CC1)C1CC1` [Compound 320, N—((S)-2,2-dicyclopropyl-1-(2-(((3R,5R)-2-oxo-5-(trifluoromethyl)piperidin-3-yl)methyl)-3-(tetrahydro-2H-pyran-4-yl)imidazo[1,2-b][1,2,4]triazin-6-yl)ethyl)-1-methyl-1H-pyrazole-5-carboxamide], the figures for the IC50 at IL-17A/A and at IL-17A/F were less than 100 nM and 100 to 1000 nM, respectively.

On to `CCn1nccc1C(=O)N[C@H](c1cn2nc(CN3CC(F)(F)CNC3=O)c(C3CCOCC3)nc2n1)C1CCC(F)(F)CC1` [Compound 435], for which the figures for the IC50 at IL-17A/A and at IL-17A/F were 100 to 1000 nM and more than 1000 nM, respectively.

As to `CCn1ncnc1C(=O)N[C@H](c1cn2nc(C[C@H]3C[C@@H](C(F)(F)F)CNC3=O)c(C3CCOCC3)nc2n1)C1CCCCCC1` [Compound 410], the IC50 at IL-17A/A is less than 100 nM; on IL-17A/F it was 100 to 1000 nM.

In the case of `CCn1nccc1C(=O)N[C@H](c1cn2nc(CC3C[C@@H](C(F)(F)F)CNC3=O)c(N3C[C@H]4C[C@@H]3CO4)nc2n1)[C@H]1CC[C@H](C)CC1` (single isomer, unassigned) [Compound 106], the values for the IC50 on IL-17A/A and on IL-17A/F were less than 100 nM and more than 1000 nM, respectively.
